Measurements taken from patent US20240067693A1, “POLYPEPTIDES AND USES THEREOF” (MEDIMMUNE LIMITED, priority 2020, published 2024).
Numbered stars: 1 amine (or outer) side, 2 acyl side, 3 side chain; on linkers, the order of the positions; unused ones are H or OH. Bridge positions count the residues as written; N and C are the ends. Square brackets hold non-standard residues; d marks the D form. Side chains are listed from the residue outwards. Peptide text beside a SMILES is read from it. * marks the point of attachment. C18 diacid = O=C(O)CCCCCCCCCCCCCCCCC(=O)*; γGlu = O=C(O)[C@H](CCC(=O)[*:2])N[*:1]; αMeF = C[C@](N)(Cc1ccccc1)C(=O)O; Dab = NCC[C@H](N)C(=O)O; Aib = CC(C)(N)C(=O)O

Legend:
[1] = molecular target: T1, rat amylin receptor (calcitonin receptor co-expressed with receptor activity modifying protein, RAMP3) (Rat AMYR3) (Rattus norvegicus, UniProt P32214+Q9JJ73); test: cAMP production in HEK cells with stable recombinant expression of rat amylin receptor (Rat AMYR3); type: cell-based; details: assay buffer with 0.1% BSA
T1 construct: expressed in transfected cells
T1 sequence (P32214 25-516): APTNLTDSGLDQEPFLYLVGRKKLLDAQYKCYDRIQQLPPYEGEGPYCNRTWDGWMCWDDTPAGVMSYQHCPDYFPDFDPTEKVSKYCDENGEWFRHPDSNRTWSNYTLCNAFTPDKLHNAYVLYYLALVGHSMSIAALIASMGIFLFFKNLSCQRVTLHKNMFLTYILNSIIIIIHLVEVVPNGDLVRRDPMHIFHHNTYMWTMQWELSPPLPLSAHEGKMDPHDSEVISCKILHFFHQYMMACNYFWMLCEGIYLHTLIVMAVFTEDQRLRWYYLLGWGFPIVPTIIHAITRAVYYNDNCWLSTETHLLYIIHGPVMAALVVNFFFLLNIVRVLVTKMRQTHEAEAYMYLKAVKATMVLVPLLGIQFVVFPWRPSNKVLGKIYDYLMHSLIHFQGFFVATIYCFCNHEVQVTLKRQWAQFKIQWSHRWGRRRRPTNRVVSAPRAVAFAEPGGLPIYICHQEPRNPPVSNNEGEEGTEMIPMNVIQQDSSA
T1 sequence (Q9JJ73 23-147 partner): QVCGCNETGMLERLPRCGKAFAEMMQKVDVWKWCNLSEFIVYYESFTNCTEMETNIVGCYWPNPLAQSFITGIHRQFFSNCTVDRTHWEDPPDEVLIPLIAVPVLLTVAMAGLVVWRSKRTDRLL
How it was run: (§1)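 Thawed cells in HBSS/0.1% BSA/25 mM HEPES pH 7.4 with 0.5 mM IBMX were incubated with peptides 30 min at room temperature; cAMP read by HTRF. EC50 from 4-parameter fit of % activation relative to maximal amylin or calcitonin effect.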

[2] = in vivo; details: male, Sprague-Dawley, rat, 20 nmol/kg
[3] = molecular target: T2, rat calcitonin receptor (rat CTR) (Rattus norvegicus, UniProt P32214); test: cAMP production in HEK cells with stable recombinant expression of rat calcitonin receptor (rat CTR); type: cell-based; details: assay buffer with 0.1% BSA
T2 construct: expressed in transfected cells
T2 sequence (P32214 25-516): T1 sequence (P32214 25-516)
How it was run: as §1

EC50 [1]	half-life ([2]; iv)	EC50 [3]	half-life ([2]; sc)	Structure (SMILES)
17.7 pM	9.4 h	755 pM	10.5 h	CC[C@H](C)[C@H](NC(=O)[C@@H]1CCCN1C(=O)CNC(=O)[C@](C)(Cc1ccccc1)NC(=O)[C@H](CC(N)=O)NC(=O)[C@H](CC(N)=O)NC(=O)[C@H](CO)NC(=O)[C@H](CO)NC(=O)[C@H](Cc1c[nH]cn1)NC(=O)[C@@H](NC(=O)[C@H](CC(C)C)NC(=O)[C@H](Cc1ccccc1)NC(=O)[C@H](CC(N)=O)NC(=O)[C@H](C)NC(=O)[C@H](CC(C)C)NC(=O)[C@H](CCCNC(=N)N)NC(=O)[C@H](CCC(N)=O)NC(=O)[C@@H](NC(=O)[C@H](C)NC(=O)[C@@H]1CSSC[C@H](NC(=O)[C@@H](N)CCCCNC(=O)CC[C@H](NC(=O)CC[C@H](NC(=O)CCCCCCCCCCCCCCCCC(=O)O)C(=O)O)C(=O)O)C(=O)N[C@@H](CC(N)=O)C(=O)N[C@@H]([C@@H](C)O)C(=O)N[C@@H](C)C(=O)N[C@@H]([C@@H](C)O)C(=O)N1)[C@@H](C)O)C(C)C)C(=O)N[C@@H](CC(C)C)C(=O)N1CCC[C@H]1C(=O)N1CCC[C@H]1C(=O)N[C@H](C(=O)N[C@@H](CCCNC(=N)N)C(=O)N[C@H](C(=O)NCC(=O)N[C@@H](CO)C(=O)N[C@@H](CC(N)=O)C(=O)N[C@H](C(=O)N[C@@H](Cc1ccc(O)cc1)C(N)=O)[C@@H](C)O)C(C)C)[C@@H](C)O [Peptide 24, K(γE-γE-C18diacid)[CNTATC]ATQRLANFLVHSSNN(αMePhe)GPILPPTRVGSNTY-amide] (H-K([γGlu-γGlu-C18 diacid])CNTATCATQRLANFLVHSSNN[αMeF]GPILPPTRVGSNTY-NH2; disulfide 2-7; N-terminus assumed)
12 pM	7.4 h	782 pM	8.1 h	CC[C@H](C)[C@H](NC(=O)[C@@H]1CCCN1C(=O)CNC(=O)[C@H](Cc1ccccc1)NC(=O)[C@H](CC(N)=O)NC(=O)C(C)(C)NC(=O)[C@H](CO)NC(=O)[C@H](CO)NC(=O)[C@H](Cc1c[nH]cn1)NC(=O)[C@@H](NC(=O)[C@H](CC(C)C)NC(=O)[C@H](Cc1ccccc1)NC(=O)[C@H](CC(N)=O)NC(=O)[C@H](C)NC(=O)[C@H](CC(C)C)NC(=O)[C@H](CCCNC(=N)N)NC(=O)[C@H](CCC(N)=O)NC(=O)[C@@H](NC(=O)[C@H](C)NC(=O)[C@@H]1CSSC[C@H](NC(=O)[C@H](CCCCN)NC(=O)[C@@H](N)CCCCNC(=O)CC[C@H](NC(=O)CCCCCCCCCCCCCCCCC(=O)O)C(=O)O)C(=O)N[C@@H](CC(N)=O)C(=O)N[C@@H]([C@@H](C)O)C(=O)N[C@@H](C)C(=O)N[C@@H]([C@@H](C)O)C(=O)N1)[C@@H](C)O)C(C)C)C(=O)N[C@@H](CC(C)C)C(=O)N1CCC[C@H]1C(=O)N1CCC[C@H]1C(=O)N[C@H](C(=O)N[C@@H](Cc1c[nH]cn1)C(=O)N[C@H](C(=O)NCC(=O)N[C@@H](CO)C(=O)N[C@@H](CC(N)=O)C(=O)N[C@H](C(=O)N[C@@H](Cc1ccc(O)cc1)C(N)=O)[C@@H](C)O)C(C)C)[C@@H](C)O [Peptide 40, K(γE-C18diacid)K[CNTATC]ATQRLANFLVHSS(Aib)NFGPILPPTHVGSNTY-amide] (H-K([γGlu-C18 diacid])KCNTATCATQRLANFLVHSS[Aib]NFGPILPPTHVGSNTY-NH2; disulfide 3-8)

Continued, compound first:

Structure (SMILES)	EC50 [1]	half-life ([2]; iv)	EC50 [3]	half-life ([2]; sc)
CC[C@H](C)[C@H](NC(=O)[C@@H]1CCCN1C(=O)CNC(=O)[C@H](Cc1ccccc1)NC(=O)[C@H](CC(N)=O)NC(=O)[C@H](CC(N)=O)NC(=O)[C@H](CO)NC(=O)[C@H](CO)NC(=O)[C@H](Cc1c[nH]cn1)NC(=O)[C@@H](NC(=O)[C@H](CC(C)C)NC(=O)[C@H](Cc1ccccc1)NC(=O)[C@H](CC(N)=O)NC(=O)[C@H](C)NC(=O)[C@H](CC(C)C)NC(=O)[C@H](CCCNC(=N)N)NC(=O)[C@H](CCC(N)=O)NC(=O)[C@@H](NC(=O)[C@H](C)NC(=O)[C@@H]1CSSC[C@H](NC(=O)[C@H](CCCCN)NC(=O)CC[C@H](NC(=O)CCCCCCCCCCCCCCCCC(=O)O)C(=O)O)C(=O)N[C@@H](CC(N)=O)C(=O)N[C@@H]([C@@H](C)O)C(=O)N[C@@H](C)C(=O)N[C@@H]([C@@H](C)O)C(=O)N1)[C@@H](C)O)C(C)C)C(=O)N[C@@H](CC(C)C)C(=O)N1CCC[C@H]1C(=O)N1CCC[C@H]1C(=O)N[C@H](C(=O)N[C@@H](CC(N)=O)C(=O)N[C@H](C(=O)NCC(=O)N[C@@H](CO)C(=O)N[C@@H](CC(N)=O)C(=O)N[C@H](C(=O)N[C@@H](Cc1ccc(O)cc1)C(N)=O)[C@@H](C)O)C(C)C)[C@@H](C)O [Peptide 3] ({C18 diacid-γGlu}-KCNTATCATQRLANFLVHSSNNFGPILPPTNVGSNTY-NH2; disulfide 2-7)	2.9 pM	14 h	186 pM	–
CC[C@H](C)[C@H](NC(=O)[C@H](C)NC(=O)[C@@H]1CCCN1C(=O)[C@H](Cc1ccccc1)NC(=O)[C@H](CC(N)=O)NC(=O)[C@H](CCN)NC(=O)[C@H](CO)NC(=O)[C@H](CO)NC(=O)[C@H](Cc1c[nH]cn1)NC(=O)[C@@H](NC(=O)[C@H](CC(C)C)NC(=O)[C@H](Cc1ccccc1)NC(=O)[C@H](CC(N)=O)NC(=O)[C@H](C)NC(=O)[C@H](CC(C)C)NC(=O)[C@H](CCCNC(=N)N)NC(=O)[C@H](CCC(N)=O)NC(=O)[C@@H](NC(=O)[C@H](C)NC(=O)[C@@H]1CSSC[C@H](NC(=O)[C@@H](N)CCCCNC(=O)CC[C@H](NC(=O)CC[C@H](NC(=O)CCCCCCCCCCCCCCCCC(=O)O)C(=O)O)C(=O)O)C(=O)N[C@@H](CC(N)=O)C(=O)N[C@@H]([C@@H](C)O)C(=O)N[C@@H](C)C(=O)N[C@@H]([C@@H](C)O)C(=O)N1)[C@@H](C)O)C(C)C)C(=O)N[C@@H](CC(C)C)C(=O)N[C@@H](CO)C(=O)N1CCC[C@H]1C(=O)N[C@H](C(=O)N[C@@H](CC(N)=O)C(=O)N[C@H](C(=O)NCC(=O)N[C@@H](CO)C(=O)N[C@@H](CC(N)=O)C(=O)N[C@H](C(=O)N[C@@H](Cc1ccc(O)cc1)C(N)=O)[C@@H](C)O)C(C)C)[C@@H](C)O [Peptide 8, K(γE-γE-C18diacid)[CNTATC]ATQRLANFLVHSS(Dab)NFPAILSPTNVGSNTY-amide] (H-K([γGlu-γGlu-C18 diacid])CNTATCATQRLANFLVHSS[Dab]NFPAILSPTNVGSNTY-NH2; disulfide 2-7)	25.6 pM	4.2 h	19900 pM	6.2 h
CC[C@H](C)[C@H](NC(=O)[C@H](C)NC(=O)[C@@H]1CCCN1C(=O)[C@H](Cc1ccccc1)NC(=O)[C@H](CC(N)=O)NC(=O)C(C)(C)NC(=O)[C@H](CO)NC(=O)[C@H](CO)NC(=O)[C@H](Cc1c[nH]cn1)NC(=O)[C@@H](NC(=O)[C@H](CC(C)C)NC(=O)[C@H](Cc1ccccc1)NC(=O)[C@H](CC(N)=O)NC(=O)[C@H](C)NC(=O)[C@H](CC(C)C)NC(=O)[C@H](CCCNC(=N)N)NC(=O)[C@H](CCC(N)=O)NC(=O)[C@@H](NC(=O)[C@H](C)NC(=O)[C@@H]1CSSC[C@H](NC(=O)[C@@H](N)CCCCNC(=O)CC[C@H](NC(=O)CC[C@H](NC(=O)CCCCCCCCCCCCCCCCC(=O)O)C(=O)O)C(=O)O)C(=O)N[C@@H](CC(N)=O)C(=O)N[C@@H]([C@@H](C)O)C(=O)N[C@@H](C)C(=O)N[C@@H]([C@@H](C)O)C(=O)N1)[C@@H](C)O)C(C)C)C(=O)N[C@@H](CC(C)C)C(=O)N[C@@H](CO)C(=O)N1CCC[C@H]1C(=O)N[C@H](C(=O)N[C@@H](CC(N)=O)C(=O)N[C@H](C(=O)NCC(=O)N[C@@H](CO)C(=O)N[C@@H](CC(N)=O)C(=O)N[C@H](C(=O)N[C@@H](Cc1ccc(O)cc1)C(N)=O)[C@@H](C)O)C(C)C)[C@@H](C)O [Peptide 9, K(γE-γE-C18diacid)[CNTATC]ATQRLANFLVHSS(Aib)NFPAILSPTNVGSNTY-amide] (H-K([γGlu-γGlu-C18 diacid])CNTATCATQRLANFLVHSS[Aib]NFPAILSPTNVGSNTY-NH2; disulfide 2-7)	17.8 pM	5.9 h	9720 pM	7.8 h
